Measured values as given in patent US6034092A, “2-[2-[(2-hydroxyethyl)amino]ethy [ l]-5-[[2-methylamino)ethyl]amino]indazolo4,3-gh]isoquinolin-6(2H)-one as antitumor agent” (priority 1995, dated 2000).
In brackets after ≈: the same amount, converted by molar mass. Where two headings read alike, the source gives them in different places.

Assays:
[1] = tested on: human colon adenocarcinoma cell line (LoVo); experiment: in vitro cytotoxic activity, MTT assay, LoVo; assay type: cell-based; settings: for IC50: Homo sapiens, read-out: IC50 ± S.D.
Method: (§1) The evaluation of the biological activity for the compound of this invention was performed "in vitro" and "in vivo" following the protocols developed by the U.S. National Cancer Institute.
The evaluation of the "in vitro" cytotoxic activity was performed using a human colon adenocarcinoma cell line (Lovo) isolated from a metastatic nodule.

P388 murine leukemia = experiment: in vivo P388 murine leukemia model, iv/iv; settings: for survival time of the treated animals (in words): P388, compared with controls (untreated animals) or with analogues
Method: as §1
Treatment was initiated approximately 24 hours after tumor transplantation and dosages of the product were administered iv according to preestablished protocols, usually at 3-day intervals. The studies were done over a 60 day period and the date of death for each animal was recorded. The % T/C was determined using the median survival time (MST) for each group according to the formula
T/C%=[(MSTtreated)/(MSTcontrols)]×100

human breast MX-1 tumor = experiment: in vivo human breast tumor xenograft MX-1 in mice, sc/iv; settings: MX-1 sc/iv q7dx3
Method: as §1
(§2) Further in vivo studies of biological activity of the compound of the invention were carried out using two human tumor xenografts, the human breast MX-1 tumor and the ovary tumor A2780 (Table II). […] The "tumor weight inhibition" can be evaluated as follows:
(§3) TWI%=100-[(average relative weight of the tumortreated /average
(§4) relative weight of the tumorcontrols)100]
(§5) By tumor regression, it is meant the reduction of the tumor mass measured 30 days after the end of the treatment compared with the tumor starting weight. Complete tumor regression means the disappearance of the tumor mass.
(§6) In vivo biological evaluation of the compound of the invention (I),
(§7) and A 2780) models in mice

[2] = limiting aspect; cited from earlier work
[3] = tested on: cell histotypes developing resistance already against doxorubicin; settings: doxorubicin-resistant cell histotypes, over-expression of glycoprotein P; cited from earlier work
ovary tumor A2780 = experiment: in vivo human ovary tumor xenograft A2780 in mice, sc/iv; settings: A 2780 sc/iv q4dx3; for Tumor regression: 30 days after end of treatment
Method: as §1, §2, §3, §4, §5, §6, §7

[4] = W.H.O. grade; dose-limiting, phase I and II; cited from earlier work
[5] = rat; cited from earlier work
[6] = man; cited from earlier work
[7] = tested on: human breast MX-1 tumor and the ovary tumor A2780; experiment: in vivo antitumor evaluation in human tumor xenografts MX-1 and A2780; set-up: species or system human tumor xenografts in mice; settings: for complete tumor regressions (in words): contrary to CI-941
Method: as §2, §3, §4, §5

[8] = 1 hour after treatment with the medicament

## O=C1c2c(O)ccc(O)c2C(=O)c2c(NCCNCCO)ccc(NCCNCCO)c21 [mitoxantrone, 5,8-dihydroxy-1,4-bis{[2-(2-hydroxyethylamino)ethyly]amino]anthracene-9,10-dione]
[1]; [8]
  IC50: 0.026 ± 0.017 mg/L (≈ 0.0585 µM)
P388 murine leukemia; P388 iv/iv + 1,4,7, 3 mg/kg
  T/C %: 195%
  Tox.: 16/284
Human breast MX-1 tumor; 4.5 mg/kg
  TWI %: 74%
[2]
  toxicity (cardiotoxicity): cardiotoxicity
  toxicity (myelodepression): mielodepressive toxic effect
[3]
  cross-resistance: cross-resistance

## O=C1c2c(O)cccc2-c2nn(CCNCCO)c3ccc(NCCNCCO)c1c23 [CI-941]
[1]; 1 h
  IC50: 0.039 ± 0.035 mg/L (≈ 0.0917 µM)
P388 murine leukemia; P388 iv/iv + 1,4,7, 6 mg/kg
  T/C %: 133%
  Tox.: 0/8
P388 murine leukemia; P388 iv/iv + 1,4,7, 9 mg/kg
  T/C %: 144%
  Tox.: 0/8
P388 murine leukemia; P388 iv/iv + 1,4,7, 13.5 mg/kg
  T/C %: 133%
  Tox.: 0/8
Human breast MX-1 tumor; 9 mg/kg
  TWI %: 83%
  Tox.: 0/7
Human breast MX-1 tumor; 13.5 mg/kg
  TWI %: 93%
  Tox.: 0/40
Human breast MX-1 tumor; 17.5 mg/kg
  TWI %: 97%
  Tox.: 9/33
Ovary tumor A2780; 8 mg/kg
  TWI %: 87%
  Tox.: 0/7
  Tumor regression: 0/7
Ovary tumor A2780; 10.4 mg/kg
  TWI %: 97%
  Tox.: 0/7
  Tumor regression: 0/7
Ovary tumor A2780; 13.5 mg/kg
  TWI %: 100%
  Tox.: 5/7
  Tumor regression: 1/7
[4]
  leukopenia: severe leukopenia (W.H.O. grade 3 and 4)
  neutropenia: neutropenia (W.H.O. grade 4)
[5]
  nephrotoxicity: marked nephrotoxicity
[6]
  cardiotoxicity: irreversible cardiotoxicity

## CNCCNc1ccc2c3c(nn2CCNCCO)-c2cnccc2C(=O)c13 [compound (I)]
[1]; [8]
  IC50: 0.54 ± 0.17 mg/L (≈ 1.42 µM)
[1]; MTT assay, compared with doxorubicin
  in vitro cytotoxic activity (in words): activity comparable to doxorubicin
P388 murine leukemia; listed as 2-[2-[(2-hydroxyethyl)amino]ethyl]-5-[[2-(methylamino)ethyl]amino]indazolo[4,3-g
  survival time of the treated animals (in words): higher increase in the average survival time of the treated animals (expressed as % T/C) than that obtained with its analogues
P388 murine leukemia; listed as compound of the invention
  survival time of the treated animals (in words): active in increasing the survival time of the treated animals
P388 murine leukemia; P388 iv/iv + 1,4,7, 7.5 mg/kg
  T/C %: 167%
P388 murine leukemia; compared with mitoxantrone, Table II
  tolerability (in words): better tolerated than mitoxantrone
P388 murine leukemia; mouse, in vivo, iv, 7.5 mg/kg
  Tox.: 0/8
Human breast MX-1 tumor; 8.9 mg/kg
  TWI %: 78%
  Tox.: 0/5
Human breast MX-1 tumor; 17.5 mg/kg
  TWI %: 96%
  Tox.: 0/5
Ovary tumor A2780; 7.5 mg/kg
  TWI %: 99%
  Tox.: 0/7
  Tumor regression: 4/7
Ovary tumor A2780; 9.7 mg/kg
  TWI %: 100%
  Tox.: 0/7
  Tumor regression: 6/7
[7]; MX-1 and A2780 xenografts, compared with CI-941
  tumor weight inhibition (in words): activity equal if not higher than CI-941
[7]; tested doses
  toxic effects (in words): absence of toxic effects
[7]; tested doses, listed as 2-[2-[(2-hydroxyethyl)amino]ethyl]-5-[[2-(methylamino)ethyl]amino]indazolo[4,3-g
  complete tumor regressions (in words): complete regression of the tumor in a statistically significant number of animals
[7]; tested doses, listed as compound of the invention
  complete tumor regressions (in words): a significant number of complete tumor regressions

## COc1cccc2c1C(=O)c1c(O)c3c(c(O)c1C2=O)C[C@@](O)(C(=O)CO)C[C@@H]3O[C@H]1C[C@H](N)[C@H](O)[C@H](C)O1 [doxorubicin]
[1]; 1 h
  IC50: 0.7 ± 0.49 mg/L (≈ 1.29 µM)

## O=C1c2ccccc2C(=O)c2c(NCCNCCO)ccc(NCCNCCO)c21 [ametantrone, 4-bis{[2-(2-hydroxyethylamino)ethyl]amino]anthracene-9,10-dione]
[2]
  toxicity (myelodepression): mielodepressive toxic effect
[3]
  cross-resistance: cross-resistance
